Among the data in ChEMBL document CHEMBL1122962, “Molecular interactions of toxic chlorinated dibenzo-p-dioxins and dibenzofurans with thyroxine binding prealbumin” (J Med Chem, 1985) are Binding affinity values, retold here.

The experiment has as its target Transthyretin (Homo sapiens) (UniProt P02766). Kind of experiment: Relative binding affinity against prealbumin in competition binding assay and expressed as relative to L-T4 (100).
`O=C(O)CCCCC(=O)Nc1cc(Cl)cc2c1Oc1cc(Cl)c(Cl)cc1O2` returned a Binding affinity of 15.

`N[C@@H](Cc1cc(I)c(Oc2cc(I)c(O)c(I)c2)c(I)c1)C(=O)O` had a Binding affinity of 100.

In turn, `O=C(O)CCCCC(=O)Nc1cc(Cl)cc2c1oc1cc(Cl)c(Cl)cc12` had a Binding affinity of 0.32.

As for `Oc1c(I)cc(I)cc1I`, the Binding affinity amounted to 384.
